# Test results published in patent US7314621B2, “Cytidine deaminase” (Kyoto University, priority 1999, dated 2008).
# Tests used:
# [1] = molecular target: T1, AID protein (Mus musculus, UniProt Q9WVE0); assay: Inhibition of the cytidine deaminase activity of the AID-GST fusion protein; type: biochemical; conditions: for inhibition of the cytidine deaminase activity of AID protein: 20 mM printed for 1,10-o-phenanthroline, both isomers tested 0 to 20 mM; for inhibition of the cytidine deaminase activity of AID protein (in words): zinc chelator and inactive isomer
# T1 construct: a full length AID cDNA was expressed as a fusion protein with glutathione S-transferase (GST); made in house; host or cells: E. coli DH5alpha
# Description: The purified AID-GST fusion protein prepared in the above (2, 4, 6, 8, 10, 20, 40, 60, 100, 200, 300, 400, and 600 ng) was incubated in the buffer (pH 7.5, the total amount 10 μl) containing 45 mM Tris with 3.3 μCi [^3H] deoxycytidine (24.8 Ci/mmol, DuPont) and 250 μM cytidine for 2 to 4 hours. The reaction was terminated by adding deoxycytidine (2 μl of 10 μg/ml) and deoxyuridine (2 μl of 10 μg/ml). Insoluble substances were removed by centrifugation, and the reaction mixture (4 μl) was subjected to the polyethylene imine-cellulose thin layer chromatography plate (VWR). The plate was developed in isopropyl alcohol/10% HCl (7:2 v/v). The plate was exposed to ultraviolet light (254 nm) for visualization and bands corresponding to deoxycytidine and deoxyuridine were collected, and added to Ultima Gold scintillation solution to be quantified by liquid scintillation photometer (Packard)
# [2] = system: mouse B cell clone CH12F3-2; assay: Production of looped-out circular DNA by class switch recombination (PCR, Southern hybridization); type: cell-based; conditions: cycloheximide 200 ng/ml, 6 hours, stimulation with IL-4, TGF-β, CD40L
# Description: CH12F3-2 B cells, either stimulated by IL-4, TGF-β, and CD40L or unstimulated, were cultured for 6 hours in the presence or absence of cycloheximide (200 ng/ml) which is a protein synthesis inhibitor, respectively. Genomic DNA was extracted from each cell, and PCR was conducted with the DNA as a template following standard methods to amplify circular DNA including an Sμ sequence and an Sα sequence. PCR was conducted using pairs of primers, αF1 and […], or αF1 and […].
# As a control, genomic DNA encoding glyceraldehyde-3-phosphate dehydrogenase (GAPDH) was amplified by PCR.
# The PCR products were subjected to gel electrophoresis and ethidium bromide staining. FIG. 1(a) and FIG. 2(a) show the results.
# To confirm the presence or absence of the amplification of a circular DNA including the looped-out S region, Southern hybridization was conducted against the PCR products using a mouse Sa region gene as a hybridization probe, according to standard methods (L. Sambrook E. F., Tom Maniatis., Second edition, Ed. Molecular Cloning (Nolan, C., Ed.) Cold Spring Harbor, 1989). A 1,155 bp DNA fragment obtained by digesting 10 kb EcoRI cleaved fragment IgH703 with Hind III and Earl was used as an Sα gene (Genbank #D11468, DNA No. 1993-3148) (J, Biol. Chem., Vol. 268, p. 4651-4665). FIGS. 1(b) and 2(b) show the results.
# [3] = system: AID mRNA in mouse B cell clone CH12F3-2; assay: Cytokine-induced AID (23C9) mRNA expression, Northern blotting; type: cell-based; conditions: cycloheximide 200 ng/ml, 12 hours, IL-4, TGF-β, CD40L
# Description: The degree of enhanced expression of the gene coding for a novel protein 23C9 in mouse B cell clone CH12F3-2 stimulated with IL-4, TGF-β and CD40L was analyzed according to the standard method (L. Sambrook, E. F., Tom Maniatis., Second edition, Ed. Molecular Cloning (Nolan, C., Ed.), Cold Spring Harbour, 1989) by Northern blotting.
# Mouse B cell clone CH12F3-2 was cultured in the presence of one of the following regents for 12 hours. • (1) IL-4, TGF-β and CD40L only. • (2) Cycloheximide which is a protein synthesis inhibitor (200 ng/ml), only • (3) IL-4, TGF-β and CD40L as well as Cycloheximide (200 ng/ml)
# Northern blotting was conducted against mRNA (10 μg for each group) obtained in the same manner as previously reported (Nucleic Acid Res., 26:911-918, 1998) from each group of treated cells using a radio-labeled cDNA fragment (1,020 bp) coding for a novel protein 23C9, obtained in the above Example, according to the standard method (L. Sambrook, E. F., Tom Maniatis., Second edition, Ed. Molecular Cloning (Nolan, C., Ed.), Cold Spring Harbour, 1989).
# As a control experiment, Northern blotting was conducted for mRNA derived from B cell clone CH12F3-2 cultured without any one of the above cytokines, or cycloheximide.
# The amount of mRNA to be electrophoresed was adjusted using the amount of mRNA for glyceraldehyde-3-phosphate dehydrogenase (GAPDH) as an index. […]
# T1 sequence (Q9WVE0 whole entry, the tested form may be a part): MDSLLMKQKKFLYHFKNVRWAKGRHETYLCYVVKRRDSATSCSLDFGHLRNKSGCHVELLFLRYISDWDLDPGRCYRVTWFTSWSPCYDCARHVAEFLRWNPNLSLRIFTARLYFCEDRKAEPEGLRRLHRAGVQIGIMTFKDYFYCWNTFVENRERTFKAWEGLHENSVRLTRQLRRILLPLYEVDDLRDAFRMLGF
SMILES,inhibition of the cytidine deaminase activity of AID protein [1],inhibition of the cytidine deaminase activity of AID protein (in words) [1],production of looped-out DNA containing the Sα sequence with class switch recombination [2],induction of AID mRNA expression by cytokines [3]
"c1cnc2c(c1)ccc1ncccc12 [1,7-o-phenanthroline]",about 13%,weak inhibition,–,–
"c1cnc2c(c1)ccc1cccnc12 [1,10-o-phenanthroline]",about 91%,inhibits,–,–
C[C@@H]1C[C@@H]([C@H](O)CC2CC(=O)NC(=O)C2)C(=O)[C@@H](C)C1 [cycloheximide],–,–,inhibited,can be inhibited
